The values below are quoted from earlier work in patent US20170364630A1, “IDENTIFICATION OF CELLULAR ANTIMICROBIAL DRUG TABLETS THROUGH INTERACTOME ANALYSIS” (Vanderbilt University, priority 2014, published 2017).

Each structure is given as a SMILES string. Converted amounts (≈) assume the structure as drawn.

Data set [1] concerns Ebola-related genes (MERTK, FURIN, TYRO3, CTSB, NADK, POLH, TAPT1). To be noted: CMap data, FIG. 8.
For data set [2], the system named is calcium channel protein. The following applies: Fish and Antzelevitch 2004.
The test system of data set [3] is HIV-1. To be noted: approximate value, Guendel et al. 2010; read-out: IC50, inhibitor of HIV-1.
Data set [4] relates to poliovirus-infected HeLa cells.
Data set [5] has as its system HIV-1. The following applies: Szlavik et al. 2004.
Data set [6] relates to human enterovirus 71. To be noted: human enterovirus 71-infected mice.
In data set [7] the target is HIV-1 reverse transcriptase (Human immunodeficiency virus type 1 group M subtype B, UniProt P04585). The following applies: Tan et al. 1991; read-out: IC50 against the HIV-1 reverse transcriptase.
Data set [8] has as its system hepatitis C virus (HCV). The following applies: cell-based quantitative high-throughput screening, He et al. 2015; read-out: EC50, anti-HCV activity.

Regarding `CC1(C)S[C@@H]2[C@H](NC(=O)[C@H](NC(=O)N3CCNC3=O)c3ccccc3)C(=O)N2[C@H]1C(=O)O` [azlocillin], in data set [1], the “Down-regulated host genes following drug treatment” value was “TAPT1 and TYRO3”; the “Up-regulated host genes following drug treatment” value is “NADK and POLH”.
On to `CC[C@H]1[C@@H]2C[C@H]3[C@@H]4N(C)c5ccccc5[C@]45C[C@@H]([C@H]2[C@H]5O)N3[C@@H]1O` [ajmaline], for which the “Up-regulated host genes following drug treatment” value in data set [1] was “MERTK, FURIN, TYRO3, FURIN, and CTSB”. For the same molecule, the “Concentration exerting comparable pharmacological activity by inhibiting calcium channel protein activity” value in data set [2] is reported as not above 20 μM.
The IC50 is the point on the concentration scale where inhibition reaches its midpoint. For the molecule `O=C1Cc2c([nH]c3ccc([N+](=O)[O-])cc23)-c2ccccc2N1` [alsterpaullone], in data set [3], the IC50 was approximately 0.15 µM.
Take `O[C@H]1[C@H]2c3cc4c(cc3CN3CCC(=C[C@@H]1O)[C@H]23)OCO4` [lycorine]: the “Effect on viral protein synthesis” value in data set [4] is on record as “inhibits viral protein synthesis”. In data set [5], the “IC50, anti-HIV-1 activity in MT4 cells” value was 0.4 µg/mL (≈ 1.39 µM). Also, the “Effect on mortality of infected mice” value in data set [6] was “reduces mortality”.
On to `C[n+]1cc2c3c(ccc2c2ccc4cc5c(cc4c21)OCO5)OCO3` [sanguinarine nitrate], for which the IC50 in data set [7] is 150 to 451 µM.
In the case of `CN1C(C(=O)Nc2ccccn2)=C(O)c2ccccc2S1(=O)=O` [piroxicam], the “Up-regulated host genes following drug treatment” value in data set [1] is “FURIN and MERTK”.
Broadly, the EC50 is the concentration that produces a half-maximal response. Regarding `CN1CCCN(C(c2ccccc2)c2ccc(Cl)cc2)CC1` (stereo not drawn) [homochlorcyclizine], the EC50 in data set [8] was 0.47 µM.
In the case of `Clc1ccc(Cn2c(CN3CCCC3)nc3ccccc32)cc1` [clemizole], the concentration giving a half-maximal response (EC50) in data set [8] was 7.15 µM.
